What was measured:
[1] = system: patient suffering from multiple sclerosis; test: Case reports: patients suffering from multiple sclerosis treated with topiramate; type: in vivo, human
Protocol: A patient suffering from multiple sclerosis was administered 15 mg per day of topiramate. The dosage was increased after 15 days to 30 mg per day. At 15 mg, the patient's involuntary stretch rigid response stopped and the patient was able to get out of bed without falling backward when their feet touched the floor for the first time in nine years.
The patient previously took trazadone 100 mg at bedtime, clonazepan 1 mg three times a day, citalapram 40 mg each morning, gabapentrin 600 mg four times a day, and synthroid 25 mcg per day for two years. They had refused steroids and interferon because of side effects.
The Topamax was increased to 15 mg at bedtime and they reported “no bad bladder accidents” and that their leg and foot cramps had disappeared. […] They were discharged on Topamax 15 mg at bedtime along with previous medications. The patient was much improved medically and emotionally.
The patient returned four weeks later walking with a cane, having worked “10 to 14 hours per day and exhausted from my move with little sleep during the past month”. They reported “insatiable itching all over my body wherever my clothes touch the skin” which […] unsuccessfully tried to treat with cetirizine. […] said […] felt “dizzy, weak, Charlie horses in arches of feet and toes, unable to stand for more than 10 minutes before starting to have gait problems, problems sleeping, having trouble mentally and urine leaking”. […] working diagnoses are Axis I Bipolar disorder, not otherwise specified Axis III multiple sclerosis. […]

[2] = system: patient suffering from diabetes, Type 1; test: Case report: patient suffering from diabetes, Type 1; type: in vivo, human; details: Example 2
Protocol: A patient suffering from diabetes, Type 1, was administered 25 mg per day of topiramate for 10 days, which was then increased to 50 mg per day.

[3] = system: patient suffering from systemic lupus erythematosis; test: Case report: patient suffering from systemic lupus erythematosis; type: in vivo, human; details: Example 11
Protocol: A young adolescent patient suffering from systemic lupus erythematosis and taking 30 mg bid of prednisone began taking 15 mg per day of topiramate. […] The prednisone was reduced to 25 mg per day after 4 weeks and to 10 mg after 6 weeks. This benefit has continued for over 6 months.

[4] = system: patient suffering from pemphigus vulgaris; test: Case reports: patients suffering from pemphigus vulgaris; type: in vivo, human
Protocol: A patient suffering from pemphigus vulgaris and taking 15 mg of chobetesol propionate per day began taking 15 mg per day of topiramate. The dose was increased to 45 mg in divided dosages over a three week period. […] This occurred and was maintained even after chobetesol propionate was reduced to 5 mg every 3 days, at 8 weeks from the initial dose of 15 mg per day. […] A patient suffering from permphigus vulgaris and taking 50 mg twice a day of immuran and 20 mg per day of prednisone began taking 15 mg per day of topiramate. The dose was increased to 45 mg per day in divided dosages over a three-week period. […] This occurred in spite of reducing the immuran to 50 mg and prednisone to 10 mg each day, which were their lowest dosages in two years. […] These improvements continued to be maintained at 20 weeks and Ig antibody was zero.

[5] = system: patient suffering from multiple autoimmune diseases; test: Case report: patient suffering from multiple autoimmune diseases; type: in vivo, human; details: Example 15
Protocol: A patient suffering from multiple autoimmune diseases was treated with topiramate. The patient was suffering from systemic lupus erythematosis (SLE) acquired anemia of gamma globulins, rheumatoid arthritis, Renaud's phenomena and Hashimotos thyroiditis. The patient was also taking medrol at doses of 32 mg per day and up to 132 mg per day and 25 mg weekly injections of methotrexate.
The topiramate treatment was begun at 15 mg per day and increased weekly by 15 mg to […] and then stabilized at 50 mg per day after two months. […] The frequency and intensity of their iritis, which was occurring every one to two months and lasting for 1 to 2 weeks, described as an “incredible pain relieved only by wrapping my eyes and head with a black towel”, decreased. It has occurred only once since using Topamax® when their parent was dying. […] The patient drove to their last appointment, which is the first time they have been able to do so in five years. They have now had consistent benefits for more than 6 months.

[6] = system: patient with rapid mood swings and severe intense itching; test: Case report: patient with rapid mood swings and severe intense itching; type: in vivo, human; details: Example 19; 12.5 mg at bedtime increased weekly until 50 mg
Protocol: A patient presented with rapid mood swings and a complaint of severe intense itching from clothing tags and some clothing, which began over twenty years ago. They were begun on gabapenten which was increased to 300 mg qid. […] Their itching was unchanged. They were begun on Topamax 12.5 mg at bedtime which was increased weekly by 12.5 mg until 50 mg.

[7] = system: patient with eosinophilic gastroenteritis; test: Case report: patient with recurrent eosinophilic gastroenteritis; type: in vivo, human; details: Example 20; 7.5 mg every three days then 7.5 mg every other day; withdrawn from prednisone
Protocol: A patient presented depressed related to a 15 pound weight gain following a recurrent of eosinophilic gastroenteritis treated with 20 mg of prednisone. This was their third bout in two years, all confirmed by a stomach biopsy. Each recurrence began between four and five months after being withdrawn from steroids, which had caused physical side effects and suspiciousness. A trial of Topamax 7.5 mg every three days and then 7.5 mg every other day was begun.

[8] = system: animal model of kindled epilepsy; details: cited from earlier work
[9] = Example 18, 15 mg at bedtime, two days later

**Q.** With `CC1(C)O[C@@H]2[C@@H](CO[C@@]3(COS(N)(=O)=O)OC(C)(C)O[C@@H]23)O1` [topiramate, 2,3:4,5-bis-O-(1-methylethylidence)-β-D-fructopyranose sulfamate] as the compound, how does the “duration of beneficial effect” value ([1]; Example 1, 12.5 mg per day) read?
**A.** more than 10 months

**Q.** What about the “involuntary stretch rigid response” value ([1]; Example 1, 15 mg per day) of the same compound?
**A.** stopped

**Q.** And the spastic rigid response ([1]; Example 1, dose lowered to 12.5 mg per day)?
**A.** no longer present

**Q.** And the “involuntary stretch rigid response” value ([1]; Example 1, higher dose of 30 mg per day)?
**A.** reversed this benefit

**Q.** And the “walking and back pain” value ([1]; Example 18, 7.5 mg at bedtime for three days)?
**A.** walking better and reported reduced back pain

**Q.** What about the “leg and foot cramps” value ([1]; Example 18, 15 mg at bedtime) of the same compound?
**A.** disappeared

**Q.** What about the “urinary incontinence and back pain” value [1, 9] of the same compound?
**A.** no urinary incontinence or back pain

**Q.** And the walking [1, 9]?
**A.** walking without a cane

**Q.** And the patient-reported symptoms ([1]; Example 18, 30 mg at bedtime, seen eight days later)?
**A.** no dizziness, weakness, urinary incontinence and decreased gait problems, itching and pain

**Q.** What about the “follow-up period with blood glucose remaining in that range” value [2] of the same compound?
**A.** 16 weeks

**Q.** What about the clinical change ([3]; 15 mg in the morning and 30 mg every evening) of the same compound?
**A.** further improvement

**Q.** And the clinical change ([3]; 15 mg per day, after seven days)?
**A.** minimal change

**Q.** And the carbohydrate craving ([3]; 15 mg twice a day)?
**A.** markedly reduced

**Q.** And the “facial and body rash, headaches, joint pain” value ([3]; 15 mg twice a day)?
**A.** began to subside, headaches disappeared and joint pain greatly diminished

**Q.** What about the energy and mood ([3]; 15 mg twice a day, over the next two weeks) of the same compound?
**A.** striking improvement in energy and mood

**Q.** And the duration of benefit ([3]; prednisone reduced to 10 mg)?
**A.** over 6 months

**Q.** And the “time at which improvement continued to be maintained” value ([4]; Example 13)?
**A.** 12 weeks

**Q.** And the lesions ([4]; Example 13, 45 mg in divided dosages, chobetesol propionate reduced)?
**A.** began to shrink, dried up and formed a scab, which came off leaving normal skin

**Q.** What about the “time at which improvements continued to be maintained” value ([4]; Example 14) of the same compound?
**A.** 20 weeks

**Q.** And the lesions ([4]; Example 14, 30 mg twice a day)?
**A.** second lesion healing

**Q.** And the lesions ([4]; Example 14, 45 mg per day, at three weeks)?
**A.** one lesion was shrinking

**Q.** And the lesions ([4]; Example 14, 45 mg per day, by four weeks, immuran and prednisone reduced)?
**A.** healed and the second lesion was beginning to shrink

**Q.** And the Ig antibody ([4]; Example 14, at 20 weeks)?
**A.** zero

**Q.** What about the “time without another episode of iritis” value [5] of the same compound?
**A.** five

**Q.** And the “frequency and intensity of iritis” value ([5]; 50 mg per day)?
**A.** decreased

**Q.** What about the “duration of consistent benefits” value ([5]; despite cessation of methotrexate) of the same compound?
**A.** more than 6 months

**Q.** What about the pain when walking ([5]; up to 65 mg per day, stabilized at 50 mg per day, medrol reduced to 5 mg per day) of the same compound?
**A.** very significant decrease in pain when walking

**Q.** What about the itching [6] of the same compound?
**A.** no itching at all

**Q.** What about the mood [6] of the same compound?
**A.** true stabilization of my mood

**Q.** And the “time without recurrence of symptoms” value [7]?
**A.** 19 months

**Q.** And the seizures [8]?
**A.** effectively block seizures
